Measured values from patent US20160067295A1, “WALNUT EXTRACTS FOR NUTRACEUTICAL APPLICATIONS” (priority 2009, published 2016).

Assays:
[1] = molecular target: human blood (acetyl) cholinesterase (Homo sapiens, UniProt P22303); conditions: for inhibition of acetyl cholinesterase (in words): 1 mg Phosphatidylcholine per ml test solution, FIG. 4, FIG. 5; for % activity of AchE: remaining activity within 5 minutes of incubation; for % activity of AchE / % inhibited part of activity of AchE: 1 mg/ml test solution; for % inhibited part of activity of AchE: within 5 minutes of incubation
human blood (acetyl) cholinesterase, sequence (P22303 32-617 isoform P22303-2 limits assumed): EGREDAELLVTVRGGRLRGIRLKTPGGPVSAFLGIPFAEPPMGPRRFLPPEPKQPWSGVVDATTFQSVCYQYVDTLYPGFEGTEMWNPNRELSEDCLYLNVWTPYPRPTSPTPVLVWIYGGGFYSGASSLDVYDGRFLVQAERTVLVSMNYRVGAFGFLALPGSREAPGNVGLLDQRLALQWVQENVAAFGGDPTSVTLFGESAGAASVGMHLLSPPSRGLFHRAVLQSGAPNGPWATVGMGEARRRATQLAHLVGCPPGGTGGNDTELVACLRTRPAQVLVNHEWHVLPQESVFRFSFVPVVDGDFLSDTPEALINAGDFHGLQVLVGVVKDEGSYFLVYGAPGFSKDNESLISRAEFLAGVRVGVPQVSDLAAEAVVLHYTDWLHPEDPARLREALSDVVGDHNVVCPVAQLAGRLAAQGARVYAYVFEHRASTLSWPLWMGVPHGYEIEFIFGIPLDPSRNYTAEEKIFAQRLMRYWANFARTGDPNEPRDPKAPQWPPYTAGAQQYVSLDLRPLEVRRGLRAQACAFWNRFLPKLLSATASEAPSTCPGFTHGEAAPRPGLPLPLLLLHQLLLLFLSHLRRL

[2] = molecular target: T1, Amyloid [A]β1-40 aggregates (Homo sapiens, UniProt P05067); assay: Defibrillization assay: dissolution of already formed amyloid Aβ-aggregates (Thioflavin T fluorescence); format: biochemical; conditions: 12 mg PC/ml test assay for walnut extracts, 12 mg PC Soy or PS Soy/ml; FIG. 3
T1 construct: Amyloid [A] β1-40 (Sigma-Aldrich, A 1075); purchased Sigma-Aldrich A 1075
T1 sequence (P05067 672-711 limits assumed): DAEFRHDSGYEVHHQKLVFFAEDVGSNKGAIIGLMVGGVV
Procedure: In this example, the highest concentrations of the walnut extracts (12 mg PC/ml test assay for the walnut extracts, 12 mg PC Soy or PS Soy/ml) were evaluated for their ability to reverse an already formed aggregate of amyloid-β.
Defibrillization efficacy is indicative for treatment of Alzheimer disease.
Dissolution of amyloid Aβ-aggregates by ES2008-021 and ES2008-022-Defibrillization assay
In a further extension of the test system, the above samples were evaluated for their ability to reverse an already formed aggregate of amyloid-β. Defibrillization efficacy is indicative for curing of Alzheimer disease.
Dissolution of amyloid Aβ-aggregates was induced by incubation with walnut extract. At each concentration of walnut extract (0.625, 1.25, 2.5, 5.0 or 7.5 μl ES2008-022 or 0.625, 1.25, 2.5, 5.0 or 7.5 μl from a stock solution containing 125 mg ES2008-021/ml) three samples were incubated and evaluated. […]
After 3 days each sample is mixed with 2 μM ([…]) Thioflavin T and 950 μl glycine/NaOH buffer (50 mM glycine, pH=9.0). Fluorescence was measured at ex 435 nm/em 485 nm.
Subtract fluorescence intensity for the corresponding “reagent blank samples” from each “active sample”. Compare the resulting fluorescence intensity with the fluorescence intensity measured for the control sample. […]

Substance	inhibition of acetyl cholinesterase (in words) [1]	% activity of AchE [1] [%]	% inhibited part of activity of AchE [1] [%]	defibrillization efficacy (in words) [2]
phosphatidylcholine [PC Soy Bean]	almost inactive	88.2	11.8	less potent in defibrillization
phosphatidylserine [PS Soy Bean]	almost inactive	94.0	6.0	less potent in defibrillization
